Tests used:
[1] = Liquid, Closed cell (Static) method
[2] = compressibility factor (dimensionless); conditions: Gas, Burnett expansion method

[N-]=[N+]=O [nitrous oxide]
[1]
Conditions	vapor or sublimation pressure [kPa]
219.24 K	554.7
222.28 K	626.3
223.31 K	652.8
227.32 K	759.6
227.36 K	760.6
232.37 K	912.1
232.43 K	915.4
237.49 K	1092.9
242.57 K	1294.7
247.65 K	1521.9
252.73 K	1777
257.8 K	2061.8
257.87 K	2065.4
262.9 K	2379
262.95 K	2381.8
267.98 K	2730.6
268.03 K	2734
273.08 K	3119.9

[2]
Conditions	compressibility factor
283.5 K, 207.4 kPa	0.9884
283.5 K, 308.1 kPa	0.9809
283.5 K, 456.3 kPa	0.9705
283.5 K, 672.4 kPa	0.9554
283.5 K, 983.6 kPa	0.9337
283.5 K, 1422.1 kPa	0.9019
283.5 K, 2020 kPa	0.8558
283.5 K, 2788.1 kPa	0.7891
283.5 K, 3680.3 kPa	0.6958
283.51 K, 170.6 kPa	0.9917
283.51 K, 253.7 kPa	0.9848
283.51 K, 376.3 kPa	0.9761
283.51 K, 556.2 kPa	0.9636
283.51 K, 816.9 kPa	0.9456
283.51 K, 1188.9 kPa	0.9193
283.51 K, 1705.3 kPa	0.8809
283.51 K, 2390.6 kPa	0.825
283.51 K, 3232.1 kPa	0.7451
304.09 K, 194 kPa	0.99
304.09 K, 288.7 kPa	0.9846
304.09 K, 429.3 kPa	0.9779
304.09 K, 635.2 kPa	0.9666
304.09 K, 935.6 kPa	0.9511
304.09 K, 1366.6 kPa	0.9281
304.09 K, 1968.7 kPa	0.8932
304.09 K, 2781.3 kPa	0.843
304.09 K, 3812.3 kPa	0.772
304.1 K, 204 kPa	0.9912
304.1 K, 303.6 kPa	0.9853
304.1 K, 450.8 kPa	0.9772
304.1 K, 666.7 kPa	0.9655
304.1 K, 980.2 kPa	0.9484
304.1 K, 1428.5 kPa	0.9233
304.1 K, 2054.5 kPa	0.8871
304.1 K, 2893.4 kPa	0.8347
304.1 K, 3945.6 kPa	0.7604
314.41 K, 193.8 kPa	0.9927
314.41 K, 288.6 kPa	0.9878
314.41 K, 429 kPa	0.9808
314.41 K, 635.5 kPa	0.9706
314.41 K, 936.8 kPa	0.9558
314.41 K, 1371.3 kPa	0.9347
314.41 K, 1984.4 kPa	0.9036
314.41 K, 2822.9 kPa	0.8587
314.41 K, 3911.4 kPa	0.7949
314.42 K, 201.1 kPa	0.992
314.42 K, 299.5 kPa	0.9869
314.42 K, 445.1 kPa	0.9798
314.42 K, 659.3 kPa	0.9696
314.42 K, 971.5 kPa	0.9545
314.42 K, 1420.6 kPa	0.9324
314.42 K, 2052.9 kPa	0.9001
314.42 K, 2915.1 kPa	0.8539
314.42 K, 4027.4 kPa	0.7881
324.78 K, 182.9 kPa	0.9923
324.78 K, 272.8 kPa	0.9888
324.78 K, 406.1 kPa	0.9831
324.78 K, 602.6 kPa	0.9746
324.78 K, 891.4 kPa	0.9631
324.78 K, 1309.1 kPa	0.9449
324.78 K, 1904.7 kPa	0.9185
324.78 K, 2731.6 kPa	0.88
324.78 K, 3833.8 kPa	0.8251
324.79 K, 183.9 kPa	0.9933
324.79 K, 274.1 kPa	0.9891
324.79 K, 407.9 kPa	0.9833
324.79 K, 605.3 kPa	0.9748
324.79 K, 894.5 kPa	0.9623
324.79 K, 1313.6 kPa	0.9441
324.79 K, 1910.8 kPa	0.9174
324.79 K, 2740 kPa	0.8789
324.79 K, 3845.5 kPa	0.824
335.16 K, 175.4 kPa	0.9949
335.16 K, 261.7 kPa	0.9913
335.16 K, 389.8 kPa	0.9864
335.16 K, 579.2 kPa	0.9792
335.16 K, 857.6 kPa	0.9686
335.16 K, 1263.2 kPa	0.9531
335.16 K, 1845.9 kPa	0.9304
335.16 K, 2665.8 kPa	0.8977
335.16 K, 3777.8 kPa	0.8498
335.18 K, 188.5 kPa	0.9942
335.18 K, 281 kPa	0.9902
335.18 K, 418.3 kPa	0.9847
335.18 K, 621.3 kPa	0.9772
335.18 K, 919.2 kPa	0.9658
335.18 K, 1352.3 kPa	0.9492
335.18 K, 1972.3 kPa	0.9248
335.18 K, 2839.6 kPa	0.8895
335.18 K, 4008.4 kPa	0.8389
345.51 K, 185.8 kPa	0.9943
345.51 K, 277.2 kPa	0.991
345.51 K, 413 kPa	0.9863
345.51 K, 613.8 kPa	0.9794
345.51 K, 909.5 kPa	0.9693
345.51 K, 1340.3 kPa	0.9543
345.51 K, 1960.2 kPa	0.9324
345.51 K, 2834.5 kPa	0.9008
345.51 K, 4029 kPa	0.8553
345.58 K, 184.6 kPa	0.9943
345.58 K, 275.5 kPa	0.9911
345.58 K, 410.4 kPa	0.9865
345.58 K, 610.1 kPa	0.9797
345.58 K, 903.9 kPa	0.9697
345.58 K, 1332.3 kPa	0.9548
345.58 K, 1949.3 kPa	0.9332
345.58 K, 2819.4 kPa	0.9017
345.58 K, 4008.9 kPa	0.8565
364.36 K, 207.6 kPa	0.9928
364.36 K, 241.7 kPa	0.9925
364.36 K, 309.9 kPa	0.9907
364.36 K, 360.3 kPa	0.9889
364.36 K, 462 kPa	0.9871
364.36 K, 536.5 kPa	0.9843
364.36 K, 687.1 kPa	0.9812
364.36 K, 797.5 kPa	0.9779
364.36 K, 1018.5 kPa	0.9723
364.36 K, 1179.8 kPa	0.967
364.36 K, 1502.7 kPa	0.9588
364.36 K, 1737 kPa	0.9517
364.36 K, 2201.5 kPa	0.9389
364.36 K, 2535.6 kPa	0.9285
364.36 K, 3191.1 kPa	0.9097
364.36 K, 3655.3 kPa	0.8947
364.36 K, 4555 kPa	0.8679
364.36 K, 5179.9 kPa	0.8475

— the NIST ThermoML archive (doi:10.1021/je049842u)
